Assays:
[1] = test system: spleen cells; assay: Proliferation assay of spleen cells in response to GPBP, fed mice; type: cell-based; details: spleen cells of orally fed mice, 10-11 days after EAE induction (Figure 2)
Procedure: Induction and Assessment of EAE - Mice were injected with 200 µg GPBP emulsified in an equal volume of complete Freund's adjuvant (CFA) containing 4 mg/ml mycobacterium tuberculosis (H37Ra) (Difco Lab, Detroit, Mich.). The emulsion at a total volume of 0.1 ml was injected into all four footpads. Immediately after and 24 hours later, pertussis toxin (250ng/mouse) (Sigma) was injected intravenously.
Induction of Oral Tolerance - Mice were fed with 250 µg GPBP or glatiramer acetate dissolved in phosphate buffered saline (PBS) on days -7, -5, -3, 0, 2, 4 and 6 by gastric intubation with an 18-gauge stainless steel feeding needle (Thomas). EAE was induced on day 0.
Proliferation Assay - The proliferation response of spleen cells was tested 10-11 days after EAE induction as described above. Cells from 3 animals in each group were pooled and cultured in triplicate (5x10^5 mouse cells and 2x10^5 rat cells) in microtiter plates with various antigen concentrations (GPBP) in a final volume of 0.2ml. Microtiter plates contained RPMI 1640 (available from Sigma Biochemicals, St. Louis, Missouri) culture medium supplemented with 1% autologous serum. After 72 hr. of incubation, cells were pulsed with 1 µCi {^3H}-thymidine for 18 hr and then harvested onto filter papers and radioactivity was counted.

[2] = test system: T-cell line derived from spleens of glatiramer acetate fed rats; assay: Proliferation assay of T-cell line from spleens of fed rats; type: cell-based; details: rat line cultured with glatiramer acetate as antigen (Figure 6)
Procedure: Isolation of glatiramer acetate specific T cell lines - Lewis rats were fed 5 times with 1 mg glatiramer acetate and (SJUJ x BALB/c)F, mice 7 times with 250 µg glatiramer acetate, at intervals of 2-3 days. Four to twelve days after the last feeding animals were sacrificed and their spleens removed.
Spleen cells of 3 animals were pooled and incubated (50 x 10^6/plate) with glatiramer acetate (500 µg) in medium containing 1 % autologous serum for 4 days. Every 14-21 days cells (4-6 x 10^6/plate) were restimulated by 3 days exposure to copolymer-1 (500 µg) presented on syngeneic irradiated (3000 rad) rat thymocytes (100 x 10^6/plate) or mouse splenocytes (50 x 10^6/plate). Stimulation was followed by propagation in 10% supernatant of Con A activated normal mouse spleen cells as T cell growth factor (TCGF).
Proliferation Assay - T cell lines (1 x 10^4 cells) were cultured with irradiated (3000R) thymocytes (rat-1 x 10^6) or splenocytes (mouse- 5 x 10^5) and with the indicated antigens (10 µg glatiramer acetate; 1 µg Con A) in a final volume of 0.2 ml in microtiter plates. At the end of 48 hours incubation cultures were pulsed with ^3H-thymidine and harvested 6-12 hours later.

[3] = test system: TGF-beta; assay: Reaction of MBP-bound plasma material with anti-TGF-beta antibody; type: in vivo, Rhesus Monkeys; details: plasma material bound to MBP
Source text: Recombinant human TGF-beta reacted with the anti-TGF-beta, but not 3C9 antibody. Table 5: Assay for MBP-specific T suppressor Inducer factora

[4] = test system: PBL; assay: Flow cytometry of peripheral blood lymphocytes (PBL); type: in vivo, Rhesus Monkeys; design: CD4+ / CD8+ / CD4+ CD45RA+ / CD8+ CD45RA+: unit not given here; details: for Ratio: CD4+/CD8+
Procedure: (§1) 3 Rhesus monkeys were treated as follows: One monkey served as control and was fed with placebo capsules (containing 5mg glucose only). The second and third monkeys were fed with glatiramer acetate containing capsules at a dose of 1mg/feeding and 20mg/feeding, respectively. Animals were fed every other day for a total of 10 feedings: 5 times prior to disease induction (immunization on day 0) and then 5 times after immunization.
(§2) Disease was induced on day 0 by an intradermal injection of 8mg bovine - MBP and 3 mg H37Ra M. tuberculosis in FCA into the hind footpads, total injected volume between 0.1 and 0.15 ml per footpad. The animals were followed for clinical manifestations of EAE, a variety of serum and CSF immunological markers and spinal cord and cranial MRI's.
(§3) The Epics C flow cytometer was used to analyze both peripheral blood lymphocytes (PBL) and cerebral spinal fluid (CSF) collected from each monkey. The red blood cells were lysed and the remaining white blood cells (WBCs) were washed and stained using standard methods with appropriate reagents. Tables 3 and 4 below show the data from staining PBL and CSF WBCs from the three animals in this Example.

[5] = test system: CSF WBCs; assay: Flow cytometry of cerebral spinal fluid (CSF) cells; type: in vivo, Rhesus Monkeys
Procedure: as §1, §2, §3

[6] = animal 18498, 20mg/feeding, day +27
[7] = animal 18497, 1mg/dose, day +13
[8] = animal 18497, 1mg/dose, day +20
[9] = animal 18497, 1mg/dose, day +27
[10] = animal 18498, 20 mg/dose, day +6
[11] = animal 18498, 20 mg/dose, day +13
[12] = animal 18498, 20 mg/dose, day +20
[13] = animal 18498, 20 mg/dose, day +27
[14] = animal 18498, 20 mg/dose, day -1

Substance: glatiramer acetate
- proliferative responses to GPBP [1]: almost complete inhibition
- proliferation response of T-cell line [2]: proliferated in response to glatiramer acetate
- anti-TGF-beta ([3]; animal 18497, 1mg/feeding then 20mg capsules after day 33, day +41): 0.85 OD405nm
- anti-TGF-beta ([3]; animal 18497, 1mg/feeding, day +6): none
- anti-TGF-beta ([3]; animal 18497, 1mg/feeding, day +13): 0.71 OD405nm
- anti-TGF-beta ([3]; animal 18497, 1mg/feeding, day +27): 0.65 OD405nm
- anti-TGF-beta ([3]; animal 18498, 20mg/feeding, day +6): none
- anti-TGF-beta ([3]; animal 18498, 20mg/feeding, day +13): 0.35 OD405nm
- anti-TGF-beta [3, 6]: 0.47 OD405nm
- anti-TGF-beta ([3]; animal 18498, 20mg/feeding, day +41): 0.45 OD405nm
- Ratio ([4]; animal 18497, 1mg/dose, day +6): 1.26
- Ratio [4, 7]: 1.09
- Ratio [4, 8]: 1.28
- Ratio [4, 9]: 1.3
- Ratio ([4]; animal 18497, 1mg/dose, day -1): 0.97
- Ratio [4, 10]: 0.88
- Ratio [4, 11]: 0.89
- Ratio [4, 12]: 0.47
- Ratio [4, 13]: 0.71
- Ratio [4, 14]: 0.93
- CD4+ ([4]; animal 18497, 1mg/dose, day +6): 39
- CD4+ CD45RA+ ([4]; animal 18497, 1mg/dose, day +6): 24
- CD8+ ([4]; animal 18497, 1mg/dose, day +6): 31
- CD8+ CD45RA+ ([4]; animal 18497, 1mg/dose, day +6): 29
- CD4+ [4, 7]: 37
- CD4+ CD45RA+ [4, 7]: 16
- CD8+ [4, 7]: 34
- CD8+ CD45RA+ [4, 7]: 29
- CD4+ [4, 8]: 41
- CD4+ CD45RA+ [4, 8]: 18
- CD8+ [4, 8]: 32
- CD8+ CD45RA+ [4, 8]: 25
- CD4+ [4, 9]: 35
- CD4+ CD45RA+ [4, 9]: 12
- CD8+ [4, 9]: 27
- CD8+ CD45RA+ [4, 9]: 18
- CD4+ ([4]; animal 18497, 1mg/dose, day -1): 35
- CD4+ CD45RA+ ([4]; animal 18497, 1mg/dose, day -1): 21
- CD8+ ([4]; animal 18497, 1mg/dose, day -1): 36
- CD8+ CD45RA+ ([4]; animal 18497, 1mg/dose, day -1): 33
- CD4+ [4, 10]: 37
- CD4+ CD45RA+ [4, 10]: 23
- CD8+ [4, 10]: 42
- CD8+ CD45RA+ [4, 10]: 32
- CD4+ [4, 11]: 41
- CD4+ CD45RA+ [4, 11]: 24
- CD8+ [4, 11]: 46
- CD8+ CD45RA+ [4, 11]: 37
- CD4+ [4, 12]: 27
- CD4+ CD45RA+ [4, 12]: 12
- CD8+ [4, 12]: 57
- CD8+ CD45RA+ [4, 12]: 41
- CD4+ [4, 13]: 37
- CD4+ CD45RA+ [4, 13]: 22
- CD8+ [4, 13]: 52
- CD8+ CD45RA+ [4, 13]: 41
- CD4+ [4, 14]: 37
- CD4+ CD45RA+ [4, 14]: 23
- CD8+ [4, 14]: 40
- CD8+ CD45RA+ [4, 14]: 32
- Cells µl ([5]; animal 18497, 1mg/feeding, day 0): few cells
- Cells µl ([5]; animal 18498, 20mg/feeding, day 0): too few cells
- CD4+ [5, 6]: 47
- CD4+ CD45RA+ [5, 6]: 8
- Cells µl [5, 6]: 29.7
- Cells µl ([5]; animal 18498, 20mg/feeding, day +34): too few cells

Reference: EP0975351B1, “TREATMENT OF MULTIPLE SCLEROSIS THROUGH INGESTION OF COPOLYMER-1” (YEDA RESEARCH AND DEVELOPMENT CO. LTD., priority 1997, dated 1998)
